Laboratory results taken from patent US20260272907A1, “Therapeutic Tyrosine Kinase Inhibitors for Multiple Sclerosis” (Principia Biopharma Inc., priority 2022, published 2026).

Columns and labels:
[1] = test system: patients with relapsing multiple sclerosis; test: Phase 2b trial: incidence of MS relapse during placebo run-out after tolebrutinib; format: in vivo, human
Description: Unscheduled assessment visits for a suspected multiple sclerosis relapse: Participants are instructed to immediately report new neurological symptoms and recurring or worsening of previous symptoms to the Investigator. Any reported symptoms are to be collected. If a participant reports symptoms that may be consistent with relapse, an unscheduled assessment visit with the Investigator is scheduled as soon as possible (whenever possible within 7 days of onset of the symptoms). The Investigator assesses whether the reported episode is consistent with the definition of MS relapse (see Example 1.6B). If it is consistent with the definition of MS relapse or if there is any doubt and relapse cannot be ruled out, an EDSS assessment should be performed. Unscheduled visit activities are detailed in SoA (Table 1), they need to be adapted, if other pathology than MS is cause for it, and additional examinations or laboratory tests are needed for safety follow up and optimal treatment decisions.
Multiple sclerosis relapse: For the purposes of this study, MS relapse is defined as acute, new neurological symptoms or worsening of previous neurological symptoms with an objective change on neurological examination. Symptoms must: • Be attributable to MS • Last for >24 hours, and • Be present at normal body temperature (i.e., no infection, excessive exercise, or excessively high ambient temperature)
METHODS: As described in Examples 1 and 2, the 16-week, double-blind, crossover trial randomized 130 patients with RMS (1:1:1:1) to tolebrutinib 5, 15, 30, or 60 mg/day. […]
OUTCOMES: The outcomes evaluated in this example include measuring the incidence of relapse during 4-week placebo run-in and run-out, the number of new Gd-enhancing T1 lesions detected with magnetic resonance imaging (MRI) at Weeks 4, 8 and 16, the number of new or enlarging T2 lesions measured at Weeks 4, 8 and 16, and the plasma CD19+B-cell count measured in the placebo run-out cohort at baseline, 1 hour after the first dose, then at Week 12 and Week 16 (FIG. 3).

[2] = test system: patients with relapsing multiple sclerosis; test: Long-term safety extension: number of new or enlarging T2 lesions (MRI); format: in vivo, human
Method: (§1) In the current open-label extension Part B, all patients receive 60 mg/day. MRI outcomes include numbers of new Gd-enhancing and new/enlarging T2 lesions, T2 lesion volume change from baseline, slowly evolving lesions (SEL), and paramagnetic rim lesions (PRL).
(§2) The Week 0 value is from the last MRI obtained in the dose-finding study if performed within 6 weeks prior to Day 1 of the long-term safety study For some patients the Week 0 value began after a gap period ranging from 0-21 weeks. For patients where the gap period was 0 weeks, the Week 0 value began immediately after the completion of Week 16 of the dose-finding study. For patients where the gap period was greater than 6 weeks a new MRI was obtained prior to Day 1 of the long-term safety study.
(§3) If from Week 16 of the dose-finding study (Cohort 2), it is also included in Week 12. If from Week 16 of the dose-finding study (Cohort 1), it is after 4 weeks placebo run out.

[3] = test system: patients with relapsing multiple sclerosis; test: Long-term safety extension: T2 lesion volume change from baseline (MRI); format: in vivo, human; conditions: for Volume of new or enlarging T2 lesions, Mean (SD): in cm³
Method: as §1, §2, §3

[4] = test system: patients with relapsing multiple sclerosis; test: Long-term safety extension: slowly evolving lesions (SEL) volume (MRI); format: in vivo, human; conditions: W96
Method: as §1

[5] = test system: CYP3A; test: Preclinical drug metabolism studies: CYP3A; format: in vitro ADME
Description: See Table 12 for the list of drugs not to be used.

[6] = test system: CD19+ B-cell; test: Phase 1: absolute CD19+ B-cell counts
[7] = test system: patients with relapsing multiple sclerosis; test: Phase 2b dose-finding study: number of new or enlarging T2 lesions by brain MRI; conditions: for Number of new/enlarging T2 lesions, mean (SD): Cohort 1 (all doses)
Method: (§4) New T1 Gd-enhancing hyperintense and new and enlarging T2 lesions are evaluated at each visit as per the SoA (Table 1), comparing lesion count to that from the previous MRI scan. Unless specified otherwise, the baseline brain MRI is used as the reference to assess all MRI-derived endpoints. The baseline MRI is the last MRI performed before the randomization visit. Standardized endpoint evaluation is assured by central review of brain MRI scans. Blinded central review is performed for all MRI-derived endpoints. Magnetic resonance imaging reviewers are blinded to treatment assignments and to other participant data.
For the number of new or enlarging T2 lesions, descriptive summary statistics over time (4, 8, 12, and 16 weeks) is provided for each of the 4 BTK inhibitor doses. Further, a similar MCP-Mod approach is explored if it is deemed reasonable to extrapolate the Week 4 data from Cohort 2 to the Week 12 placebo data.
(§5) For each secondary endpoint, a similar negative binomial model and the MCP-Mod procedure were used. As it is reasonable to assume a constant rate of lesion formation over 12 weeks under placebo treatment, the same approach as that utilized for the primary endpoint was used, i.e., using the Week 4 data in Cohort 2 as the Week 12 placebo data while accounting for within-participant correlation. Descriptive summary statistics over time were provided for each of the 4 BTK inhibitor dose groups.
Magnetic resonance imaging (MRI) scans were obtained at screening and every 4 weeks for 16 weeks.

[8] = test system: patients with relapsing multiple sclerosis; test: Phase 2b dose-finding study: total number of Gd-enhancing T1-hyperintense lesions by brain MRI; conditions: for Count of Gd-enhancing T1-hyperintense lesions, observed mean (SD): 12 weeks of treatment
Method: as §4
As it is reasonable to assume a constant rate of lesion formation over 12 weeks under placebo for total number of Gd-enhancing T1-hyperintense lesions, the same approach as that utilized for the primary endpoint is used, by using the Week 4 data in Cohort 2 as the Week 12 placebo data while accounting for the within-participant correlation. Descriptive summary statistics over time is provided for each of the 4 BTK inhibitor doses.
as §5

[9] = Cohort 1 (all doses), 4-week placebo run-out after 12 weeks of tolebrutinib
[10] = 5 mg daily, after 12 weeks of treatment
[11] = 15 mg daily, after 12 weeks of treatment
[12] = 30 mg daily, after 12 weeks of treatment
[13] = 60 mg daily, after 12 weeks of treatment
[14] = 60 mg, end of 12 weeks of treatment, 27 of 31 with evaluable MRI

With C=CC(=O)N1CCC[C@@H](n2c(=O)n(-c3ccc(Oc4ccccc4)cc3)c3c(N)nccc32)C1 [the BTK inhibitor, (R)-1-(1-acryloylpiperidin-3-yl)-4-amino-3-(4-phenoxyphenyl)-1H-imidazo[4,5-c]pyridin-2(3H)-one] the “Patients relapse-free during the placebo run-out” value [1, 9] was 98.4%, the “Relapses during the placebo run-out” value [1, 9] was 1 and the “Rebound disease activity after discontinuation” value ([1]; patients with RMS, 4-week placebo run-out, preliminary findings) was “does not induce rebound disease activity”. The “Number of new or enlarging T2 lesions, Mean (SD)” value ([2]; 5/60 mg, Week 0) was 3.97 (8.47), the “Number of new or enlarging T2 lesions, Median” value (“Number … Median” for short) ([2]; 5/60 mg, Week 0) was 0.00 and the “Number of new or enlarging T2 lesions, Mean (SD)” value ([2]; 5/60 mg, Week 12) was 1.68 (3.49). For the same compound, the “Number … Median” value ([2]; 5/60 mg, Week 12) was 0.00, the “Number of new or enlarging T2 lesions, Mean (SD)” value ([2]; 15/60 mg, Week 0) was 3.52 (6.51) and the “Number … Median” value ([2]; 15/60 mg, Week 0) was 1.00. For the same compound, the “Number of new or enlarging T2 lesions, Mean (SD)” value ([2]; 15/60 mg, Week 12) was 1.32 (1.83), the “Number … Median” value ([2]; 15/60 mg, Week 12) was 1.00 and the “Number of new or enlarging T2 lesions, Mean (SD)” value ([2]; 30/60 mg, Week 0) was 3.41 (7.32). The “Number … Median” value ([2]; 30/60 mg, Week 0) was 0.00, the “Number of new or enlarging T2 lesions, Mean (SD)” value ([2]; 30/60 mg, Week 12) was 1.34 (4.97) and the “Number … Median” value ([2]; 30/60 mg, Week 12) was 0.00. The “New/enlarging T2 lesion counts” value ([2]; 60/60 mg, LTS through W96) was “remained low”, the “Number of new or enlarging T2 lesions, Mean (SD)” value ([2]; 60/60 mg, Week 0) was 1.10 (1.87) and the “Number … Median” value ([2]; 60/60 mg, Week 0) was 0.00. The “Number of new or enlarging T2 lesions, Mean (SD)” value ([2]; 60/60 mg, Week 12) was 0.29 (0.69), the “Number … Median” value ([2]; 60/60 mg, Week 12) was 0.00 and the “Number of new or enlarging T2 lesions, Mean (SD)” value ([2]; All (N = 125), Week 0) was 3.00 (6.56). The “Number … Median” value ([2]; All (N = 125), Week 0) was 0.00, the “Number of new or enlarging T2 lesions, Mean (SD)” value ([2]; All (N = 125), Week 12) was 1.16 (3.21) and the “Number … Median” value ([2]; All (N = 125), Week 12) was 0.00. The Volume of new or enlarging T2 lesions, Median ([3]; 5/60 mg, Week 0) was 0.09 cm³, the “Volume of new or enlarging T2 lesions, Mean (SD)” value (shortened to “Volume … (SD)”) ([3]; 5/60 mg, Week 0) was 1.28 (2.57) and the Volume of new or enlarging T2 lesions, Median ([3]; 5/60 mg, Week 12) was 0.2 cm³. For the same compound, the “Volume … (SD)” value ([3]; 5/60 mg, Week 12) was 1.05 (1.70), the Volume of new or enlarging T2 lesions, Median ([3]; 15/60 mg, Week 0) was 0.08 cm³ and the “Volume … (SD)” value ([3]; 15/60 mg, Week 0) was 0.72 (1.86). For the same compound, the Volume of new or enlarging T2 lesions, Median ([3]; 15/60 mg, Week 12) was 0.2 cm³, the “Volume … (SD)” value ([3]; 15/60 mg, Week 12) was 1.09 (1.61) and the Volume of new or enlarging T2 lesions, Median ([3]; 30/60 mg, Week 0) was 0 cm³. For the same compound, the “Volume … (SD)” value ([3]; 30/60 mg, Week 0) was 0.48 (1.59), the Volume of new or enlarging T2 lesions, Median ([3]; 30/60 mg, Week 12) was 0.04 cm³ and the “Volume … (SD)” value ([3]; 30/60 mg, Week 12) was 0.69 (1.30). For the same compound, the “T2 lesion volume change, W96 vs baseline, mean±SD” value ([3]; 60/60 mg arm) was 0.38±2.11 cm3, the Volume of new or enlarging T2 lesions, Median ([3]; 60/60 mg, Week 0) was 0 cm³ and the “Volume … (SD)” value ([3]; 60/60 mg, Week 0) was 0.18 (0.38). For the same compound, the Volume of new or enlarging T2 lesions, Median ([3]; 60/60 mg, Week 12) was 0.06 cm³, the “Volume … (SD)” value ([3]; 60/60 mg, Week 12) was 0.26 (0.48) and the Volume of new or enlarging T2 lesions, Median ([3]; All (N = 125), Week 0) was 0 cm³. For the same compound, the “Volume … (SD)” value ([3]; All (N = 125), Week 0) was 0.67 (1.81), the Volume of new or enlarging T2 lesions, Median ([3]; All (N = 125), Week 12) was 0.12 cm³ and the “Volume … (SD)” value ([3]; All (N = 125), Week 12) was 0.80 (1.39). The “SEL volume, median (IQR)” value ([4]; 5/60-mg arm) was 247.5 (84-420) mm3, the “SEL volume, median (IQR)” value ([4]; 15/60-mg arm) was 258 (66-906) mm3 and the “SEL volume, median (IQR)” value ([4]; 30/60-mg arm) was 570 (133.5-1011) mm3. The “SEL volume, median (IQR)” value ([4]; 60/60-mg arm) was 244.5 (87-939) mm3, the “Substrate of CYP3A isoenzyme” value [5] was “substrate” and the “Dose at which the dose-response for the increase in circulating B-cells is maximal” value [6] was “approximately 30 mg once daily”. The “Dose-dependent increase of absolute CD19+ B-cell counts relative to baseline” value ([6]; observed maximally at Day 4) was “up to 80%”, the “New or enlarging T2 lesion count, Mean” value [7, 10] was 1.90 and the “New or enlarging T2 lesion count, Median” value [7, 10] was 0.00. For the same compound, the “Count of new and enlarging T2 lesions, observed mean (SD)” value ([7]; 5 mg once daily, end of 12 weeks of treatment) was 1.90 (3.97), the “New or enlarging T2 lesion count, Mean” value [7, 11] was 1.32 and the “New or enlarging T2 lesion count, Median” value [7, 11] was 1.00. For the same compound, the “Count of new and enlarging T2 lesions, observed mean (SD)” value ([7]; 15 mg once daily, end of 12 weeks of treatment) was 1.32 (1.83), the “New or enlarging T2 lesion count, Mean” value [7, 12] was 1.30 and the “New or enlarging T2 lesion count, Median” value [7, 12] was 0.00. The “Count of new and enlarging T2 lesions, observed mean (SD)” value ([7]; 30 mg once daily, end of 12 weeks of treatment) was 1.30 (4.90), the “New or enlarging T2 lesion count, Mean” value [7, 13] was 0.23 and the “New or enlarging T2 lesion count, Median” value [7, 13] was 0.00. For the same compound, the “Patients with >=3 new or enlarging T2 lesions” value [7, 13] was 0 n, the “Count of new and enlarging T2 lesions, observed mean (SD)” value ([7]; 60 mg once daily, end of 12 weeks of treatment) was 0.23 (0.62) and the “Adjusted relative reduction in count of new and enlarging T2 lesions relative to placebo” value ([7]; 60 mg, 12 weeks, 95% CI [68.39%, 96.41%], nominal p=0.0001) was 89.34%. For the same compound, the “Participants with no new and enlarging T2 lesions” value [7, 14] was 87.1%, the “Number of new/enlarging T2 lesions, mean (SD)” value ([7]; Week 12) was 0.58 (1.27) and the “Number of new/enlarging T2 lesions, mean (SD)” value ([7]; after 4 weeks of placebo run-out) was 0.95 (2.72). For the same compound, the “Total Gd-enhancing T1-hyperintense lesion count, Mean” value [8, 10] was 1.77, the “Total Gd-enhancing T1-hyperintense lesion count, Median” value [8, 10] was 0.00 and the “Count of Gd-enhancing T1-hyperintense lesions, observed mean (SD)” value ([8]; 5 mg once daily) was 1.77 (4.10). For the same compound, the “Patients with 2 total Gd-enhancing T1-hyperintense lesions” value [8, 11] was 0 n, the “Total Gd-enhancing T1-hyperintense lesion count, Mean” value [8, 11] was 0.87 and the “Total Gd-enhancing T1-hyperintense lesion count, Median” value [8, 11] was 0.00. For the same compound, the “Count of Gd-enhancing T1-hyperintense lesions, observed mean (SD)” value ([8]; 15 mg once daily) was 0.87 (1.59), the “Total Gd-enhancing T1-hyperintense lesion count, Mean” value [8, 12] was 1.18 and the “Total Gd-enhancing T1-hyperintense lesion count, Median” value [8, 12] was 0.00. The “Count of Gd-enhancing T1-hyperintense lesions, observed mean (SD)” value ([8]; 30 mg once daily) was 1.18 (4.87), the “Total Gd-enhancing T1-hyperintense lesion count, Mean” value [8, 13] was 0.29 and the “Total Gd-enhancing T1-hyperintense lesion count, Median” value [8, 13] was 0.00. For the same compound, the “Count of Gd-enhancing T1-hyperintense lesions, observed mean (SD)” value ([8]; 60 mg once daily) was 0.29 (0.86), the “Participants with no Gd-enhancing T1-hyperintense lesions” value [8, 14] was 87.1% and the “Relative reduction in total count of Gd-enhancing T1-hyperintense lesions relative to placebo” value ([8]; any of the doses tested (5, 15, 30, 60 mg), 12 weeks) was “No statistically significant relative reduction”.
